Measured values as given in patent US20240000084A1, “ANTI[…], ANTIBACTERIAL AGENT, ANTIVIRAL AGENT, PATHOGEN DISPOSAL DEVICE, ANTI[…] PRODUCTION METHOD, ANTIBACTERIAL TREATMENT METHOD, VIRUS INACTIVATION METHOD, AND PATHOGEN DISPOSAL METHOD” (ACENET INC., priority 2020, published 2024).
Read-outs that look alike come from different tables or passages of the source.

How the values were obtained:
[1] = Lewis acidity measuring method (1): reaction rate constant of reaction between CoTPP and oxygen in the presence of a Lewis acid; assay type: physicochemical
Description: Chem. Soc. […] Specifically, the Lewis acidity can be measured by the following “Lewis acidity measuring method (1)”, which is herein incorporated by reference.
As to acetonitrile (MeCN) that contains cobalt tetraphenylporphyrin, saturated O2, and an object whose Lewis acidity is to be measured (e.g., a cation of a metal or the like, represented by M^n+ in the following chemical reaction formula (1a)) in the following chemical reaction formula (1a), the change of the ultraviolet-visible absorption spectrum is measured at room temperature. On the basis of the obtained reaction rate constant (kcat), the ΔE value (eV), which is an indicator of the Lewis acidity, can be calculated. The higher the kcat, the stronger the Lewis acidity. Furthermore, the Lewis acidity of an organic compound can be estimated from the energy level of the lowest unoccupied molecular orbital (LUMO) calculated by the quantum chemical calculation. The higher the value at the positive side, the stronger the Lewis acidity.
In the following table, the numerical value expressed in the unit “kcat, M^−2s^−1” is a reaction rate constant of a reaction between CoTPP and oxygen in the presence of a Lewis acid. The numerical value expressed in the unit “LUMO, eV” is the energy level of LUMO.

[2] = tested on: bacteria A (any one of Staphylococcus aureus, Escherichia coli MV1184, Streptococcus pyogenes, Streptcoccus mutans, Porphyromonas gingivalis, Treponema …); experiment: Bactericidal action on bacteria A-containing material (Experimental Example 1); assay type: cell-based; settings: chlorine dioxide generated by bringing ozone gas into contact with a radical source; cultured after contact

Compound	kcat, reaction rate constant of reaction between CoTPP and oxygen in the presence of a Lewis acid [1] [M^−2 s^−1]	further results
CC(C)(C)CC(C)(C)c1ccc(OCCOCC[N+](C)(C)Cc2ccccc2)cc1.[Cl-] [benzethonium chloride]	0.24	
[O][Cl+][O-] [chlorine dioxide]		bactericidal effect on bacteria A [2]: exhibits a bactericidal effect
CCCC[N+](CCCC)(CCCC)CCCC.F[P-](F)(F)(F)(F)F [tetrabutylammonium hexafluorophosphate]	>0.1	
benzalkonium chloride		kcat, reaction rate constant of reaction between CoTPP and oxygen in the presence of a Lewis acid ([1]; acetonitrile, saturated O2, room temperature): 0.18 M^−2 s^−1
